Data: ChEMBL document CHEMBL5038569, “Targeting RECQL5 Functions, by a Small Molecule, Selectively Kills Breast Cancer in Vitro and in Vivo” (J Med Chem, 2021)
Active and inactive are the calls of the source. No cut-off for these calls is given here.

What was measured:
MCF7 [1] = assay: Cytotoxicity against human MCF7 cells expressing wild type RECQL5 assessed as cell growth inhibition measured after 72 hrs by MTT assay; format: functional; conditions: dose 6-50 µM
MCF7 [2] = assay: Cytotoxicity against RECQL5 knock out human MCF7 cells assessed as cell growth inhibition measured after 72 hrs by MTT assay; format: functional; conditions: dose 6-50 µM
Homo sapiens = species on record: Homo sapiens; assay: Inhibition of full length His-tagged human RECQL5 expressed in Escherichia coli incubated for 15 mins by fluorescence based assay

Row | SMILES | Activity (MCF7 [1]) | Activity (MCF7 [2]) | inhibition (Homo sapiens)
1 | COc1ccc(NC(=O)N[C@@H](c2ccccc2)c2nnc(SCc3ccccc3)o2)cc1 | inactive | inactive | 
2 | COc1ccc(NC(=O)N[C@@H](Cc2ccccc2)c2nnc(SCc3ccccc3)o2)cc1 | Dose-Dependent Effect | Dose-Dependent Effect | 
3 | O=C(Nc1ccc([N+](=O)[O-])cc1)N[C@@H](Cc1ccccc1)c1nnc(SCc2ccccc2)o1 | Dose-Dependent Effect | Dose-Dependent Effect | 
4 | O=C(Nc1ccc([N+](=O)[O-])cc1)N[C@@H](c1ccccc1)c1nnc(SCc2ccccc2)o1 | Dose-Dependent Effect | Dose-Dependent Effect | 
5 | Cc1ccc(NC(=O)N[C@@H](c2ccccc2)c2nnc(SCc3ccccc3)o2)cc1 | Dose-Dependent Effect | Dose-Dependent Effect | 
6 | O=C(Nc1cc(C(F)(F)F)cc(C(F)(F)F)c1)N[C@@H](Cc1ccccc1)c1nnc(SCc2ccccc2)o1 | Dose-Dependent Effect | Dose-Dependent Effect | inactive
7 | Cc1ccc(NC(=O)N[C@@H](Cc2ccccc2)c2nnc(SCc3ccccc3)o2)cc1 | Dose-Dependent Effect | Dose-Dependent Effect | 
8 | O=C(NCc1nnc(SCc2ccccc2)o1)Nc1cc(C(F)(F)F)cc(C(F)(F)F)c1 | Dose-Dependent Effect | Dose-Dependent Effect | 
